In US20230293565A1, “USE OF WNT/BETA-CATENIN PATHWAY INHIBITORS TO BLOCK REPLICATION OF SARS-COV-2 AND OTHER PATHOGENIC VIRUSES” (THE GOVERNORS OF THE UNIVERSITY OF ALBERTA, priority 2020, published 2023):
Entries after “also recorded” stand apart in the source; their conditions may differ. Where two headings read alike, the source gives them in different places.

What was measured:
Vero cells = format: cell-based, African green monkey; details: 1 μM (Pyrvinium 100 nM), 48 hours
HCOV-229E = HCOV-229E plaque assay in Calu3 cells; format: cell-based
Method: (§1) FIG. 16. Effect of Wnt/β-catenin inhibitors on other human coronaviruses (HCOVs). Calu3 cells were treated with the indicated concentrations of Wnt/β-catenin inhibitors for 24 hours and then infected with HCOVs NL63 or 229E MOI of 0.5). Twenty-four hours later, media were collected and subjected to plaque assay to determine viral titers. Average titers from there independent experiments are shown.
(§2) Because Wnt/β-catenin inhibitors enhance the IFN response, we hypothesized that these drugs would be effective against other human coronaviruses and potentially other pathogenic RNA viruses such as flaviviruses and alphaviruses. To test this theory, Calu-3 and A549 cells treated with Wnt/β-catenin inhibitors or DMSO for 24 hours were infected with two different seasonal human coronavirus HCOV-NL63 and HCOV-229E for 24 hours or Zika virus or Mayaro virus for 48 and 24 hours respectively.

Zika virus (ZIKV) = experiment: Zika virus plaque assay and qRT-PCR in A549 cells; format: cell-based; details: A549, 1 μM, 24 h pre-treatment, 0.1 MOI
Method: FIG. 17. Wnt/β-catenin inhibitors reduce replication of other RNA viruses. A549 cells were treated with Wnt/β-catenin inhibitors (1 μM) or DMSO alone for 24 hours, after which the cells were infected with 0.1 MOI of Zika virus (ZIKV) or Mayaro virus (MAYV). Forty-eight hours later, virus-containing media were subjected to plaque assays and total RNA extracted from cells was subjected to qRT-PCR to determine relative levels of viral RNA. Average viral titers (A,C) and genomic RNA levels (B, D) from drug-treated cells from 3 independent experiments are shown. Error bars represent standard error of the mean. *, P<0.05; **, P<0.01; N.S. (not significant).
as §2

HCOV-NL63 = HCOV-NL63 plaque assay in Calu3 cells; format: cell-based; details: Calu3 treated 24 h, MOI 0.5, 24 h
Method: as §1, §2

[1] = tested on: SARS-CoV-2 (CANADA/VIDO01/2020 strain); format: cell-based
Mayaro virus (MAYV) = format: cell-based; details: A549, 1 μM, 24 h pre-treatment, 0.1 MOI
[2] = tested on: type III (IFNλ2) interferon; format: cell-based, human; details: A549 treated 24 h, Sendai virus 8 and 16 hours

O=C([O-])CCN1C(=O)/C(=C/c2ccc(-c3ccc([N+](=O)[O-])cc3)o2)SC1=S.[K+] [KYA1797K]
density of peroxisomes in Vero cells (Vero cells): increases peroxisome density
titers of HCOV-229E (HCOV-229E; Calu3 treated 24 h, MOI 0.5, 24 h): significantly reduced
replication of Zika virus (Zika virus (ZIKV)): most potent
titers of HCOV-NL63 (HCOV-NL63): significantly reduced
SARS-CoV-2 replication, drug added 6-hours post-infection (in words) [1]: effectively block; also recorded: reduce SARS-CoV-2 replication
SARS-CoV-2 replication, drug added 12-hours post-infection (in words) [1]: reduce SARS-CoV-2 replication
replication of Mayaro virus (Mayaro virus (MAYV)): most potent

Cc1cc(-c2ncc(CC(=O)Nc3ccc(-c4cnccn4)cn3)cc2C)ccn1 [LGK-974]
SARS-CoV-2 replication, drug added 6-hours post-infection (in words) [1]: effectively block

Cc1cc(/C=C/c2ccc3cc(N(C)C)ccc3[n+]2C)c(C)n1-c1ccccc1 [Pyrvinium]
titers of HCOV-229E (HCOV-229E): significantly reduced
titers of HCOV-NL63 (HCOV-NL63): significantly reduced
SARS-CoV-2 replication, drug added 6-hours post-infection (in words) [1]: effectively block; also recorded: reduce SARS-CoV-2 replication
SARS-CoV-2 replication, drug added 12-hours post-infection (in words) [1]: reduce SARS-CoV-2 replication
induction of type III IFN (IFNλ2 transcripts) [2]: much more dramatic effects

iCRT-14
induction of type III IFN (IFNλ2 transcripts) [2]: much more dramatic effects
